The target in test [1] is T1, protein-protein interaction between hSOS1 and hKRASG12C (Homo sapiens, UniProt Q07889).
T1 construct: GST-hSOS1, 564-1049aa expressed and purified in-house
T1 sequence (Q07889 564-1049): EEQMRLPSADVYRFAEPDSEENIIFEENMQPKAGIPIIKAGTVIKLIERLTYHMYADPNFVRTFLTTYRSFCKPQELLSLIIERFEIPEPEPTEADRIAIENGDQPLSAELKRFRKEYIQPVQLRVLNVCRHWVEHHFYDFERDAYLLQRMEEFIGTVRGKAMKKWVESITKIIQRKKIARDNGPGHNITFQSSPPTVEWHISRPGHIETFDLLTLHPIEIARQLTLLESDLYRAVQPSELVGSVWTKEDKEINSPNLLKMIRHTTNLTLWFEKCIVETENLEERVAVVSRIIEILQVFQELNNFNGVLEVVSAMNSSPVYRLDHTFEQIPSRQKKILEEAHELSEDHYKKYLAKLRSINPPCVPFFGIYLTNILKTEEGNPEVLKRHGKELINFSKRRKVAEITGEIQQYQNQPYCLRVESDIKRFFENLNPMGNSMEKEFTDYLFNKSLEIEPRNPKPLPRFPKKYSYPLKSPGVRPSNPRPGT
Nature of the test: KRAS-SOS1 interaction assay (HTRF). It is filed as binding. The following applies: GST-hSOS1 564-1049aa, HIS-hKRASG12C, read-out: KRAS-SOS1 Interaction inhibition IC50. An outline of the steps: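 GST-hSOS1 (564-1049aa) at 10-50 nM working solution pre-incubated with compounds 10 min at 20° C in HEPES pH 7.4 buffer with EDTA, DTT, BSA and Igepal. HIS-hKRASG12C (100-300 nM working solution) added for 30-60 min, then anti-GST-d2/anti-HIS-Tb detection; percent inhibition from the 665/620 nm ratio.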

In test [2] the target is T2, nucleotide exchange on hKRASG12C mediated by hSOS1 (Homo sapiens, UniProt Q07889).
T2 construct: HIS-hSOS1, 564-1049aa mediated GTP loading onto GST-hKRASG12C; His (N); made in house
T2 sequence (Q07889 564-1049): T1 sequence (Q07889 564-1049)
Put plainly: Guanine nucleotide exchange assay (GNEA, HTRF). The test is classed as biochemical. The conditions noted are these: HIS-hSOS1 564-1049aa mediated GTP loading onto GST-hKRASG12C 1-169aa, read-out: Guanine nucleotide exchange inhibition IC50. The method, boiled down: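 Compounds were pre-incubated 10 min at 20 °C with HIS-hSOS1 (564-1049aa) and EDA-GTP-DY-647P1 (working solution 10-50 nM and 200 nM) in pH 7.4 HEPES with NaCl, MgCl2, DTT, BSA and Igepal. GST-hKRASG12C (1-169aa, 25-125 nM working solution) plus anti-GST-Tb was added for 30-60 min at 20 °C. Percent inhibition came from the HTRF 665/620 nm ratio.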

Test [3] concerns pERK after EGF stimulation in DLD1 cells. Put plainly: ERK phosphorylation assay (alphascreen pERK). The test is classed as cell-based. The following applies: Homo sapiens, DLD-1, 2 h compound, 200 ng/ml hEGF for 5 minutes, read-out: ERK phosphorylation inhibition IC50. An outline of the steps:
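DLD1 cells pretreated with test compounds for 2 h, then stimulated with 200 ng/ml hEGF for 5 min. Lysates assayed by AlphaScreen SureFire for ERK1/2 p-T202/Y204, read after 2 h at 25–28 °C. % inhibition relative to the stimulated-minus-unstimulated vehicle window.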
Background: Bead proximity is the source of the signal in Alpha formats.

Molecules are shown by their SMILES.

Broadly, the IC50 is the concentration that gives 50% inhibition.

As for `COCCN1C(=O)C(C)(C)c2cc3nc(C)nc(N[C@H](C)c4cccc(C(F)(F)C(C)(C)O)c4F)c3cc21` [Compound 63, (R)-4-((1-(3-(1,1-difluoro-2-hydroxy-2-methylpropyl)-2-fluorophenyl)ethyl)amino)-6-(2-methoxyethyl)-2,8,8-trimethyl-6,8-dihydro-7H-pyrrolo[2,3-g]quinazolin-7-one], the IC50 was in the range of 0.001 to 0.01 µM in test [1], 0.001 to 0.03 µM in test [2] and 0.001 to 0.2 µM in test [3].

Turning to `CCN1C(=O)C(C)(C)c2cc3nc(C)nc(N[C@H](C)c4cccc(C(F)(F)C(C)(C)O)c4F)c3cc21` [Compound 64, (R)-4-((1-(3-(1,1-difluoro-2-hydroxy-2-methylpropyl)-2-fluorophenyl)ethyl)amino)-6-ethyl-2,8,8-trimethyl-6,8-dihydro-7H-pyrrolo[2,3-g]quinazolin-7-one], the IC50 in test [1] fell in the range of 0.001 to 0.01 µM; in test [2], 0.001 to 0.03 µM; in test [3], 0.001 to 0.2 µM.

As for `Cc1nc(N[C@H](C)c2cccc(C(F)(F)CO)c2F)c2cc3c(cc2n1)N(C)C(=O)C31CC1` [Compound 66, (R)-4′-((1-(3-(1,1-difluoro-2-hydroxyethyl)-2-fluorophenyl)ethyl)amino)-2′,8′-dimethylspiro [cyclopropane-1,6′-pyrrolo[3,2-g]quinazolin]-7′(8′H)-one], the results for the IC50 in test [1], in test [2] and in test [3] were 0.001 to 0.01 µM, 0.001 to 0.03 µM and 0.001 to 0.2 µM, respectively.

For `Cc1nc(N[C@H](C)c2cc(N)cc(C(F)(F)F)c2)c2cc3c(cc2n1)C(C)(C)C(=O)N3C` [Compound 70, (R)-4-((1-(3-amino-5-(trifluoromethyl)phenyl)ethyl)amino)-2,6,8,8-tetramethyl-6H-pyrrolo[2,3-g]quinazolin-7(8H)-one], the values for the IC50 in test [1], in test [2] and in test [3] were 0.001 to 0.01 µM, 0.031 to 0.13 µM and 0.001 to 0.2 µM, respectively.

Regarding `Cc1nc(N[C@H](C)c2cccc(C(F)(F)C(C)(C)O)c2F)c2cc3c(cc2n1)C(C)(C)CN3C` [Compound 75, (R)-1,1-difluoro-1-(2-fluoro-3-(1-((2,6,8,8-tetramethyl-7,8-dihydro-6H-pyrrolo[2,3-g]quinazolin-4-yl)amino)ethyl)phenyl)-2-methylpropan-2-ol], the IC50 was in the range of 0.011 to 0.025 µM in test [1], 0.031 to 0.13 µM in test [2] and 0.001 to 0.2 µM in test [3].

`Cc1nc(N[C@H](C)c2cccc(C(F)(F)CO)c2F)c2cc3c(cc2n1)N(C)C(=O)C3(C)C` [Compound 80, (R)-4-((1-(3-(1,1-difluoro-2-hydroxyethyl)-2-fluorophenyl)ethyl)amino)-2,6,6,8-tetramethyl-6,8-dihydro-7H-pyrrolo[3,2-g]quinazolin-7-one]: the figures for the IC50 in test [1], in test [2] and in test [3] were 0.001 to 0.01 µM, 0.001 to 0.03 µM and 0.001 to 0.2 µM, respectively.

On to `CCc1nc(N[C@H](C)c2cccc(C(F)(F)C(C)(C)O)c2F)c2cc3c(cc2n1)N(C)C(=O)C3(C)C` [Compound 86, (R)-4-((1-(3-(1,1-difluoro-2-hydroxy-2-methylpropyl)-2-fluorophenyl)ethyl)amino)-2-ethyl-6,6,8-trimethyl-6,8-dihydro-7H-pyrrolo[3,2-g]quinazolin-7-one], for which the IC50 in test [1] lay within 0.001 to 0.01 µM; in test [2], 0.031 to 0.13 µM; in test [3], 0.001 to 0.2 µM.

Take `CCN1C(=O)C(C)(C)c2cc3c(N[C@H](C)c4cccc(C(F)(F)CO)c4F)nc(C)nc3cc21` [Compound 88, (R)-4-((1-(3-(1,1-difluoro-2-hydroxyethyl)-2-fluorophenyl)ethyl)amino)-8-ethyl-2,6,6-trimethyl-6,8-dihydro-7H-pyrrolo[3,2-g]quinazolin-7-one]: the figures for the IC50 in test [1], in test [2] and in test [3] were 0.001 to 0.01 µM, 0.001 to 0.03 µM and 0.001 to 0.2 µM, respectively.

In the case of `Cc1nc(N[C@H](C)c2cccc(C(F)(F)C(C)(C)O)c2F)c2cc3c(c(C)c2n1)N(C)C(=O)C3(C)C` [Compound 90, (R)-4-((1-(3-(1,1-difluoro-2-hydroxy-2-methylpropyl)-2-fluorophenyl)ethyl)amino)-2,6,6,8,9-pentamethyl-6,8-dihydro-7H-pyrrolo[3,2-g]quinazolin-7-one], the results for the IC50 in test [1], in test [2] and in test [3] were 0.001 to 0.01 µM, 0.031 to 0.13 µM and 0.001 to 0.2 µM, respectively.

For `CCC1(CC)C(=O)N(C)c2cc3nc(C)nc(N[C@H](C)c4cccc(C(F)(F)C(C)(C)O)c4F)c3cc21` [Compound 91, (R)-4-((1-(3-(1,1-difluoro-2-hydroxy-2-methylpropyl)-2-fluorophenyl)ethyl)amino)-6,6-diethyl-2,8-dimethyl-6,8-dihydro-7H-pyrrolo[3,2-g]quinazolin-7-one], the IC50 lay in the range of 0.011 to 0.025 µM in test [1], 0.031 to 0.13 µM in test [2] and 0.001 to 0.2 µM in test [3].

Take `Cc1nc(N[C@H](C)c2cccc(C(F)(F)C(C)(C)O)c2F)c2cc3c(cc2n1)N(C)C(=O)C3(CF)CF` [Compound 92, (R)-4-((1-(3-(1,1-difluoro-2-hydroxy-2-methylpropyl)-2-fluorophenyl)ethyl)amino)-6,6-bis(fluoromethyl)-2,8-dimethyl-6,8-dihydro-7H-pyrrolo[3,2-g]quinazolin-7-one]: the IC50 in test [1] fell in the range of 0.001 to 0.01 µM; in test [2] it was 0.031 to 0.13 µM; in test [3], 0.201 to 0.5 µM.

With `COC1(C)C(=O)N(C)c2cc3c(N[C@H](C)c4cccc(C(F)(F)C(C)(C)O)c4F)nc(C)nc3cc21` (stereo partly drawn) [Compound 101, (R&S)-4-(((R)-1-(3-(1,1-difluoro-2-hydroxy-2-methylpropyl)-2-fluorophenyl)ethyl)amino)-8-methoxy-2,6,8-trimethyl-6,8-dihydro-7H-pyrrolo[2,3-g]quinazolin-7-one], the figures for the IC50 in test [1], in test [2] and in test [3] were 0.001 to 0.01 µM, 0.001 to 0.03 µM and 0.001 to 0.2 µM, respectively.

As for `CCn1c(=O)n(C)c2cc3nc(C)nc(N[C@H](C)c4cccc(C(F)(F)C(C)(C)O)c4F)c3cc21` [Compound 104, (R)-8-((1-(3-(1,1-difluoro-2-hydroxy-2-methylpropyl)-2-fluorophenyl)ethyl)amino)-1-ethyl-3,6-dimethyl-1H-imidazo[4,5-g]quinazolin-2(3H)-one], the IC50 in test [1] lay in the range of 0.001 to 0.01 µM; in test [2], 0.001 to 0.03 µM; in test [3], 0.001 to 0.2 µM.

As for `Cc1nc(N[C@H](C)c2cccc(C(F)(F)C(C)(C)O)c2F)c2cc3c(cc2n1)n(C)c(=O)n3C(C)C` [Compound 105, (R)-8-((1-(3-(1,1-difluoro-2-hydroxy-2-methylpropyl)-2-fluorophenyl)ethyl)amino)-1-isopropyl-3,6-dimethyl-1H-imidazo[4,5-g]quinazolin-2(3H)-one], the IC50 in test [1] was 0.001 to 0.01 µM; in test [2], 0.001 to 0.03 µM; in test [3], 0.001 to 0.2 µM.

As for `Cc1nc(N[C@H](C)c2cccc(C(F)(F)C(C)(C)O)c2F)c2cc3c(cc2n1)n(C)c(=O)n3CC(F)F` [Compound 106, (R)-8-((1-(3-(1,1-difluoro-2-hydroxy-2-methylpropyl)-2-fluorophenyl)ethyl)amino)-1-(2,2-difluoroethyl)-3,6-dimethyl-1H-imidazo[4,5-g]quinazolin-2(3H)-one], the IC50 in test [1] was 0.001 to 0.01 µM; in test [2], 0.001 to 0.03 µM; in test [3], 0.001 to 0.2 µM.

As for `Cc1nc(N[C@H](C)c2cccc(C(F)(F)C(C)(C)O)c2F)c2cc3c(cc2n1)n(C)c(=O)n3C` [Compound 109, (R)-8-((1-(3-(1,1-difluoro-2-hydroxy-2-methylpropyl)-2-fluorophenyl)ethyl)amino)-1,3,6-trimethyl-1,3-dihydro-2H-imidazo[4,5-g]quinazolin-2-one], the IC50 in test [1] is 0.001 to 0.01 µM; in test [2] it was 0.001 to 0.03 µM; in test [3] it was 0.001 to 0.2 µM.

As to `C[C@@H](Nc1nc(C2CC2)nc2cc3c(cc12)C(C)(C)C(=O)N3C)c1cccc(C(F)(F)C(C)(C)O)c1F` [Compound 110, (R)-2-cyclopropyl-4-((1-(3-(1,1-difluoro-2-hydroxy-2-methylpropyl)-2-fluorophenyl)ethyl)amino)-6,6,8-trimethyl-6,8-dihydro-7H-pyrrolo[3,2-g]quinazolin-7-one], the IC50 was 0.011 to 0.025 µM in test [1], 0.031 to 0.13 µM in test [2] and 0.201 to 0.5 µM in test [3].

The record behind these values is patent US20260209247A1, “Substituted Tricyclic Compounds” (Lupin Limited, priority 2019, published 2026).
